In PubChem BioAssay (NCI):
Where “and” joins values, the source holds several entries; their conditions need not be identical. Equal entries are not always repeated.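 Assay format: 96-well plates, 48-hour exposure. GI50 marks 50% less growth. TGI: total growth inhibition.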

How the values were obtained:
Assay in all cases: NCI tumour cell line growth inhibition, 48 h
SF-268 CNS = system: SF-268 CNS
IGROV1 ovarian = system: IGROV1 ovarian
A549 NSCLC = system: A549 NSCLC
UACC-257 melanoma = system: UACC-257 melanoma
SF-539 CNS = system: SF-539 CNS
HCT-15 colon = system: HCT-15 colon
EKVX NSCLC = system: EKVX NSCLC
HCC-2998 colon = system: HCC-2998 colon
HL-60(TB) leukemia = system: HL-60(TB) leukemia

Row | Compound | TGI (SF-268 CNS) [µM] | TGI (IGROV1 ovarian) [µM] | TGI (A549 NSCLC) [µM] | TGI (UACC-257 melanoma) [µM] | TGI (SF-539 CNS) | TGI (HCT-15 colon) [µM] | TGI (EKVX NSCLC) [µM] | TGI (HCC-2998 colon) [µM] | GI50 (SF-268 CNS) [µM] | GI50 (UACC-257 melanoma) [µM] | GI50 (HCC-2998 colon) | TGI (HL-60(TB) leukemia) | GI50 (HL-60(TB) leukemia) | GI50 (IGROV1 ovarian) | GI50 (A549 NSCLC) [µM] | GI50 (SF-539 CNS) | GI50 (HCT-15 colon) [µM] | GI50 (EKVX NSCLC) [µM]
1 | COC(=O)C1=C(C(=O)OC)C2C=CC1C1C(Cl)=C(Cl)C21 (configuration not stated) | > 100 | > 100 | > 100 | > 100 | > 100 µM | > 100 | > 100 | > 100 | – | – | – | – | – | – | – | – | – | –
2 | O=C1OCc2c1cc1ccc(O)c(OC3OC(CO)C(O)C(O)C3O)c1c2-c1ccc2c(c1)OCO2 (configuration not stated) | > 100 | > 100 | > 100 | > 100 | > 100 µM | > 100 | > 100 | > 100 | 57.1 | 37.9 | 38.2 µM | – | – | – | – | – | – | –
3 | OCCC1(O)CCC(O)CC1 (configuration not stated) | > 100 | > 100 | > 100 | > 100 | > 100 µM | > 100 | > 100 | > 100 | – | – | – | > 100 µM | – | – | – | – | – | –
4 | CC(C)CC(=O)[O-].CC(C)CC(=O)[O-].N.N.N.N.[Co+3].[O-][Cl+3]([O-])([O-])[O-] | > 100 | > 100 | > 100 | > 100 | > 100 µM | > 100 | > 100 | > 100 | > 100 | > 100 | > 100 µM | > 100 µM | > 100 µM | > 100 µM | > 100 | > 100 µM | > 100 | > 100
5 | CCCCCCCCCCCCCC(=O)OC1CC(=O)OC1CO (configuration not stated) | > 100 | > 100 | > 100 | > 100 | > 100 µM | 38.4 | > 100 | > 100 | – | – | – | 63.9 µM | – | – | – | – | – | –
6 | Clc1ccc(C2N3CCCCC3[C@@H]3c4[nH]c5ccccc5c4CCN23)cc1 (some centres not stated) | > 100 | > 100 | > 100 | > 100 | > 100 µM | > 100 | > 100 | > 100 | – | – | – | 55 µM | – | – | – | – | – | –
7 | Cc1ccc(-c2c3c([nH]c(=O)c2C#N)-c2cc(F)ccc2OC3)cc1 | – | > 100 | > 100 | > 100 | > 100 µM | > 100 | > 100 | – | – | > 100 | – | > 100 µM | 96.6 µM | 52.3 µM | 55 | > 100 µM | 91 | 95.5
8 | CC12CC[C@@H](C(C)(C)O)C1[C@@H](O)CC1(C)C2CCC2[C@@]3(C)CC[C@H](O)C(C)(C)C3C(O)C[C@]21C (some centres not stated) | 39.7 | 39.5 | 29.7 | – | 35.3 µM | 29.4 | 29 | 36.2 | – | – | – | 24.9 µM | – | – | – | – | – | –
9 | CCCCNC1=C(C(=O)OCC)C(=O)CO1 | > 100 | > 100 | > 100 | > 100 | > 100 µM | > 100 | > 100 | > 100 | – | – | – | > 100 µM | – | – | – | – | – | –
10 | N#C/C(=C/c1ccsc1)C(=O)c1ccccc1 | > 100 | – | > 100 | > 100 | > 100 µM | > 100 | > 100 | > 100 | – | – | – | > 100 µM | – | – | – | – | – | –
11 | CCOc1ccc2c(c1)[n+]([O-])c(S(=O)(=O)c1ccc(C)cc1)c(N)[n+]2[O-] | > 100 | > 100 | > 100 | > 100 | > 100 µM | – | > 100 | > 100 | – | – | – | > 100 µM | – | – | – | – | – | –
12 | CC(=O)Nc1ccccc1Sc1ccccc1 | > 100 | > 100 | > 100 | > 100 | > 100 µM | > 100 | > 100 | > 100 | – | – | – | > 100 µM | – | – | – | – | – | –
13 | COc1ccccc1C1C(C(=O)Nc2ccccc2)=C(C)NC(C)=C1C(=O)Nc1ccccc1 | > 100 | > 100 | – | > 100 | > 100 µM | > 100 | > 100 | > 100 | – | – | – | – | – | – | – | – | – | –
14 | COc1ccc2ccc3c(c2c1)CN1CCc2cc(OC)c(OC)cc2C1C3 (configuration not stated) | – | > 100 | – | > 100 | > 100 µM | > 100 | > 100 | > 100 | – | – | – | > 100 µM | – | – | – | – | – | –
15 | CCCCCCCCCC[C@@H](O)[C@@H]1CC[C@H]([C@H]2CC[C@@H]([C@@H](O)CCCCCCCCCC[C@H]3CC(CC(C)=O)C(=O)O3)O2)O1 (some centres not stated) | 31.4 | 39.2 | 30.6 | 26.7 | 22.7 µM | 34 | 78 | 47 | – | – | – | 2.29 µM | – | – | – | – | – | –
16 | Cc1cc2c(cc1C)[n+](=O)c(C(=O)CC(=O)C(=O)Nc1c(C(C)C)cccc1C(C)C)c(C)n2[O-] | > 100 | > 100 | > 100 | > 100 | > 100 µM | > 100 | > 100 | > 100 | – | – | – | – | – | – | – | – | – | –

Row | Compound | TGI (SF-268 CNS) [µM] | TGI (IGROV1 ovarian) [µM] | TGI (A549 NSCLC) [µM] | TGI (UACC-257 melanoma) [µM] | TGI (SF-539 CNS) | TGI (HCT-15 colon) [µM] | TGI (EKVX NSCLC) [µM] | TGI (HCC-2998 colon) [µM] | GI50 (SF-268 CNS) [µM] | GI50 (UACC-257 melanoma) [µM] | GI50 (HCC-2998 colon) | TGI (HL-60(TB) leukemia) | GI50 (HL-60(TB) leukemia) | GI50 (IGROV1 ovarian) | GI50 (A549 NSCLC) [µM] | GI50 (SF-539 CNS) | GI50 (HCT-15 colon) [µM] | GI50 (EKVX NSCLC) [µM]
17 | Cc1ccc(S(=O)(=O)C(CC(=O)N2CCCC2)C(=O)c2ccccc2)cc1 (configuration not stated) | > 100 | > 100 | > 100 | > 100 | > 100 µM | – | – | > 100 | – | – | – | 52.7 µM | – | – | – | – | – | –
18 | N#CSCC1CC(O)(c2ccccc2)C(c2ccccc2)C(c2ccc(Cl)cc2)O1 (configuration not stated) | 4.74 | 3.74 | 4.24 | 3.39 | 3.17 µM | 3.38 | – | 3.35 | 1.67 | 1.61 | 1.84 µM | 5.77 µM | 1.55 µM | 2 µM | 1.78 | 1.76 µM | 1.43 | –
19 | N#CC1(Cc2ccc(N)cc2)c2ccccc2C=CN1C(=O)c1ccccc1 (configuration not stated) | > 100 | > 100 | > 100 | > 100 | > 100 µM | – | > 100 | > 100 | – | – | – | 44 µM | – | – | – | – | – | –
20 | COC(=O)C(=O)C(C(=O)C=C(C)C)C(=O)C(=O)Nc1cc(C(F)(F)F)ccc1Cl (configuration not stated) | > 100 | > 100 | > 100 | > 100 | > 100 µM | > 100 | > 100 | > 100 | – | – | – | > 100 µM | – | – | – | – | – | –
21 | COc1cccc(-c2cc(=O)c3cc(N(C)C)ccc3[nH]2)c1 | – | > 100 | > 100 | > 100 | 0.0351 µM and 0.022 µM and 0.0128 µM | – | – | – | – | – | 0.0472 µM and 0.0229 µM | 0.0621 µM and 0.00853 µM | 0.0111 µM and 0.00264 µM | 0.0892 µM and 0.0423 µM and 0.0174 µM | – | 0.0106 µM and 0.00332 µM | – | –
22 | COc1ccc(CNc2cc(OC)c(OC)c(OC)c2)cc1 | 28.6 | > 100 | > 100 | > 100 | 35.1 µM | > 100 | 98.9 | 32.3 | – | – | – | > 24.5 µM | – | – | – | – | – | –
23 | O=C(N/N=C/c1ccccc1O)c1cccc([N+](=O)[O-])c1 | > 100 | 79.6 | > 100 | > 60.6 | > 82.1 µM | > 100 | 82.8 | > 100 | – | – | – | > 39.3 µM | – | – | – | – | – | –
24 | O=C1C=CC(=Nc2ccc3c(c2)C(Br)c2ccccc2-3)O1 (configuration not stated) | > 100 | > 100 | > 100 | > 100 | > 100 µM | > 100 | > 100 | > 100 | – | – | – | > 100 µM | – | – | – | – | – | –
25 | COC(=O)C[C@H]1CCC2(OCCO2)[C@]1(C)C(=O)OC | > 100 | > 100 | > 100 | > 100 | > 100 µM | > 100 | > 100 | – | – | – | – | > 100 µM | – | – | – | – | – | –
26 | N#CC(C(=N/O)/C(=N/O)C(C#N)c1ccc(Cl)cc1)c1ccc(Cl)cc1 (configuration not stated) | > 100 | > 100 | > 100 | > 100 | > 100 µM | > 100 | > 100 | > 100 | – | – | – | – | – | – | – | – | – | –
27 | CCOC(=O)NC(=O)c1cn(C2OC(COC(=O)CCCCCCCCC(=O)OCC3OC(n4cc(C(=O)NC(=O)OCC)c(=O)[nH]c4=O)C(O)C3O)C(O)C2O)c(=O)[nH]c1=O (configuration not stated) | > 100 | > 100 | > 100 | > 100 | > 100 µM | > 100 | > 100 | > 100 | – | – | – | > 100 µM | – | – | – | – | – | –
28 | CCN(CC)c1c(C(=O)/C=C/c2ccccc2)c(-c2ccccc2)nn(C)c1=O | > 100 | > 100 | > 100 | > 100 | > 100 µM | – | > 100 | – | – | – | – | > 100 µM | – | – | – | – | – | –
29 | C=C(CN1CCc2ccccc2C1)c1ccc(C(=O)Nc2cnccn2)cc1 | > 100 | – | > 100 | > 100 | 83.3 µM | > 100 | > 100 | > 100 | 60.4 | 83.6 | 36.1 µM | 14 µM | 3.55 µM | – | 31 | 7.59 µM | 28.8 | 52.8
30 | CCCCCCCCCCCC(=O)CC(=O)c1c(O)cccc1O | 33 | 36.4 | 33.1 | 34.5 | 35.5 µM | 47.4 | 33.4 | 82.9 | – | – | – | > 100 µM | – | – | – | – | – | –
31 | COc1ccc2cc1Oc1ccc(cc1)CC1c3cc(c(OC)cc3CCN1C)Oc1c3c(cc4c1C(C2)N(C)CC4)OCO3 (configuration not stated) | 22.5 | 28.8 | 30.6 | – | 6.03 µM | 14.7 | 29.8 | 24.2 | – | – | – | 6.66 µM | – | – | – | – | – | –
